Laboratory results reported in patent US5475132A, “Antifungal agents based on amides containing a phenyl group” (Rhone-Poulenc Agrochimie, priority 1988, dated 1995).

Test system: Phytophthora citrophthora
Experiment: Example B3: action on phytopathogenic soil fungi, growth on agar in Petri dishes
Assay type: cell-based
Details: 120 h, 30 ppm, agar medium, 22° C., 5 days, read-out: inhibition of the development of the fungus

Structure (SMILES)	inhibition at 30 ppm [%]
COc1ccc(-c2nc(SCc3ccc(Cl)cc3)ncc2C(=O)N2CCOCC2)cc1OC [Compound 435]	≥ 80
COc1ccc(-c2nc(Sc3ccc(Cl)cc3)ncc2C(=O)N2CCOCC2)cc1OC [Compound 436]	≥ 80
COc1ccc(-c2nc(Oc3ccc(Cl)cc3)ncc2C(=O)N2CCOCC2)cc1OC [Compound 437]	≥ 80
COc1ccc(-c2nc(Oc3ccc(Br)cc3)ncc2C(=O)N2CCOCC2)cc1OC [Compound 438]	≥ 80
COc1ccc(-c2nc(Oc3ccc(F)cc3)ncc2C(=O)N2CCOCC2)cc1OC [Compound 439]	≥ 80
COc1ccc(-c2nc(Oc3ccccc3C)ncc2C(=O)N2CCOCC2)cc1OC [Compound 440]	≥ 80
COc1ccc(-c2nc(Oc3ccc(Cl)c(C)c3)ncc2C(=O)N2CCOCC2)cc1OC [Compound 441]	≥ 80
COc1ccc(-c2nc(Oc3ccc(C(F)(F)F)cc3)ncc2C(=O)N2CCOCC2)cc1OC [Compound 442]	≥ 80
COc1ccc(-c2nc(Sc3cccc(Cl)c3)ncc2C(=O)N2CCOCC2)cc1OC [Compound 445]	≥ 80
COc1ccc(-c2nc(Sc3ccc(Br)cc3)ncc2C(=O)N2CCOCC2)cc1OC [Compound 447]	≥ 80
COc1ccc(-c2nc(Sc3ccc(F)cc3)ncc2C(=O)N2CCOCC2)cc1OC [Compound 449]	≥ 80
COc1ccc(-c2nc(Sc3ccc(Cl)c(Cl)c3)ncc2C(=O)N2CCOCC2)cc1OC [Compound 450]	≥ 80
COc1ccc(-c2nc(N3CCCCC3)ncc2C(=O)N2CCOCC2)cc1OC [Compound 458]	≥ 80
COc1ccc(-c2cc(-c3ccccc3)nc(C)c2C(=O)N2CCOCC2)cc1OC [Compound 505, N-[4-(3,4-dimethoxyphenyl)-2-methyl-6-phenylnicotinoyl]morpholine]	≥ 80
CCN(C)C(=O)c1c(-c2ccc(OC)c(OC)c2)cc(-c2ccccc2)nc1C [Compound 506]	≥ 80
COCCN(C)C(=O)c1c(-c2ccc(OC)c(OC)c2)cc(-c2ccccc2)nc1C [Compound 507]	≥ 80
COc1ccc(-c2c(C(=O)N3CCOCC3)cc(-c3ccc(F)cc3)n2C)cc1OC [Compound 607, 5-(4-fluorophenyl)-2-(3,4-dimethoxyphenyl)-1-methyl-3-(morpholinocarbonyl)pyrrole]	≥ 80
COc1ccc(-c2c(C(=O)N3CCOCC3)cnn2-c2ccc(Cl)cc2)cc1OC [Compound 608, 2-(4-Chlorophenyl)-3-(3,4-dimethoxyphenyl)-4-(morpholinocarbonyl)pyrazole]	≥ 80
COc1ccc(-c2c(C(=O)N3CCOCC3)cc(-c3ccc(Cl)cc3)n2C)cc1OC [Compound 619]	≥ 80
COc1ccc(-c2c(C(=O)N3CCOCC3)cc(-c3ccccc3)n2C)cc1OC [Compound 621]	≥ 80
COc1ccc(-c2nc(C(C)(C)C)ccc2C(=O)N2CCOCC2)cc1OC [Compound 3110]	≥ 80
COc1ccc(-c2nc(C=C(C)C)ccc2C(=O)N2CCOCC2)cc1OC [Compound 3111]	≥ 80
COc1ccc(-c2nc(-c3ccsc3)ccc2C(=O)N2CCOCC2)cc1OC [Compound 3112]	≥ 80
COc1ccc(-c2nc(-c3cccs3)ccc2C(=O)N2CCOCC2)cc1OC [Compound 3113]	≥ 80
COc1ccc(-c2nc(-c3cccc4ccccc34)ccc2C(=O)N2CCOCC2)cc1OC [Compound 3114]	≥ 80
COc1ccc(-c2nc(-c3ccc4ccccc4c3)ccc2C(=O)N2CCOCC2)cc1OC [Compound 3115]	≥ 80
COc1ccc(-c2nc(-c3ccco3)ccc2C(=O)N2CCOCC2)cc1OC [Compound 3116]	≥ 80
COCCN(C)C(=O)c1ccc(-c2ccsc2)nc1-c1ccc(OC)c(OC)c1 [Compound 3117]	≥ 80
CCN(C)C(=O)c1ccc(-c2ccsc2)nc1-c1ccc(OC)c(OC)c1 [Compound 3118]	≥ 80
CCN(CC)C(=O)c1ccc(-c2ccsc2)nc1-c1ccc(OC)c(OC)c1 [Compound 3119]	≥ 80
